Patent US20130172191A1, “STABLE ETHYLENE INHIBITING COMPOUNDS AND METHODS FOR THEIR PREPARATION” (priority 2002, published 2013)

How the values were obtained:
[1] = Control experiment: 1,2-diiodo-1-methylcyclopropane in tetrahydrofuran without reagent, GC of headspace; format: physicochemical; details: 0.30 g in 2 ml tetrahydrofuran, no reagent, stirring 5 minutes; 1 ppm easily detectable
Method: (§1) Into a 50 ml Florence flask with magnetic stirring was placed 2 ml of tetrahydrofuran and 0.30 g of 1,2-diiodo-1-methylcyclopropane. […] GC method uses Varian CP-PoraBOND Q column 10 meters long 0.32 mm ID; helium carrier; initial temperature 50° C.; initial time 0 minutes; ramp rate 20° C./min; final temperature 270° C.; final time 5 minutes; injection volume 0.20 ml. The retention time of an authentic sample of 1-methylcyclopropene was 2.91 minutes. 1 ppm is easily detectable under these conditions.

[2] = Chemically induced release of a cyclopropene (1-methylcyclopropene) by a reducing or nucleophilic agent, GC of headspace; format: physicochemical
Method: as §1
Into a 100 ml Florence flask with magnetic stirring was placed 2 ml of tetrahydrofuran and 1.0 g of zinc dust. The zinc was activated with 10 drops of 1,2-dibromoethane. Then 0.34 g of 1,2-diiodo-1-methylcyclopropane was added.
Into a 100 ml Florence flask with magnetic stirring was placed 2 ml of methanol and 1.0 g of zinc dust. The zinc was activated with 10 drops of 1,2-dibromoethane. Then 0.34 g of 1,2-diiodo-1-methylcyclopropane was added.
Into a 100 ml Florence flask with magnetic stirring was placed 2 ml of tetrahydrofuran and 1.1 g of magnesium turnings. The magnesium was activated with 10 drops of 1,2-dibromoethane. Then 0.35 g of 1,2-diiodo-1-methylcyclopropane was added.
Into a 50 ml Florence flask with magnetic stirring was placed 3 g of dimethylformamide and 1.2 g of triphenylphosphine. Then 0.83 g of 1,2-diiodo-1-methylcyclopropane was added.
Into a 100 ml Florence flask with magnetic stirring was placed 2 g of dimethylformamide, 0.70 g of potassium t-butoxide, and 0.84 g of 4-methylbenzenethiol. Then 0.40 g of 1,2-diiodo-1-methylcyclopropane was added.
The polymeric reagent was prepared by slurrying 50 ml of Duolite™ GT73 (Rohm and Haas Company) and stirring for two hours with 50 ml of water and 10 g of 45% aqueous potassium hydroxide. The slurry was filtered, washed twice with water, thrice with methanol, air dried, and placed in a vacuum oven overnight. 0.54 g of this polymeric reagent was placed in a 122 ml vial and the beads were wetted with 0.10 g of 1,2-diiodo-1-methylcyclopropane in 0.70 g of methanol.

## CC1(I)CC1I (stereo not shown) [Example 60, 1,2-diiodo-1-methylcyclopropane]
[1]
  1-methylcyclopropene in headspace (GC analysis): no detectable 1-methylcyclopropene
[2]; 4-methylbenzenethiol 0.84 g, potassium t-butoxide 0.70 g in 2 g dimethylformamide, 0.40 g precursor, 100 ml flask, 15 minutes at room temperature
  1-methylcyclopropene in headspace (GC analysis): 87567 ppm
[2]; magnesium turnings 1.1 g (activated with 1,2-dibromoethane) in 2 ml tetrahydrofuran, 0.35 g precursor, 100 ml flask, stirring 3 hours
  1-methylcyclopropene in headspace (GC analysis): 49993 ppm
[2]; polymeric benzenethiol reagent (Duolite GT73, KOH treated) 0.54 g, 0.10 g precursor in 0.70 g methanol, 122 ml vial, overnight at room temperature
  1-methylcyclopropene in headspace (GC analysis): 134 ppm
[2]; triphenylphosphine 1.2 g in 3 g dimethylformamide, 0.83 g precursor, 50 ml flask, 15 minutes at room temperature
  1-methylcyclopropene in headspace (GC analysis): 10 ppm
[2]; zinc dust 1.0 g (activated with 1,2-dibromoethane) in 2 ml methanol, 0.34 g precursor, 100 ml flask, stirring 30 minutes
  1-methylcyclopropene in headspace (GC analysis): 98390 ppm
[2]; zinc dust 1.0 g (activated with 1,2-dibromoethane) in 2 ml tetrahydrofuran, 0.34 g precursor, 100 ml flask, stirring 20 hours
  1-methylcyclopropene in headspace (GC analysis): 4658 ppm
